Data: US20200268832A1, “COMPOSITIONS FOR DELIVERY TO AND TREATMENT OF ATHEROSCLEROTIC PLAQUES” (Sanford Burnham Prebys Medical Discovery Institute, priority 2015, published 2020)
pKd: −log10 of the molar value. Where a SMILES comes first, the peptide text is derived from it. Bridges are numbered along the chain shown (N, C = ends).

Target: T1, p32 protein (Homo sapiens, UniProt Q07021)
T1 construct: 6xHis; host or cells: Rosetta-gami-2 cells (Novagen); an E. coli strain by own knowledge
T1 sequence (Q07021 74-282): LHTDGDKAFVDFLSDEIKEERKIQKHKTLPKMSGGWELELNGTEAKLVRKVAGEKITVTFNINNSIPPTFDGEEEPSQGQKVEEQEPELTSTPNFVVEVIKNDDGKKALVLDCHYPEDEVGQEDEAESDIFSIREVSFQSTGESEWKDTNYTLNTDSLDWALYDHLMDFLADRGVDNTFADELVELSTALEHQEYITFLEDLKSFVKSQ
Assay: Fluorescence polarization binding of FAM-labeled peptides to p32 (KD)
Settings: affinity of binding to p32
Protocol: FIGS. 2A-2D are graphs showing FP- and phage binding-based validation of p32 binding peptides and hit compounds. […] Measurements were performed with PheraStar FS plate reader (BMG Labtech, Ortenberg, Germany) on 384-well plate. (B) Affinity of the 7 hit compounds in dose-dependent (8.25 μM to 100 μM) inhibition of FAM-TT1 binding to p32 in FP assay. (C) Assessment of hit compound binding to a non-target secondary protein, NRP-1, to determine the specificity of the hit compounds in FP assay. A known NRP-1 binding peptide, RPARPAR (SEQ ID NO:18), was used as a control. (D) Effect of the hit compounds on the TT1 phage binding to p32 protein. TT1 phage binding to p32 in the presence of 100 μM hit compounds was determined in ELISA-type of binding assay. Each data point presents average±S.D., n=4.
FIG. 6 is a graph showing the effect of buffer solution on interaction of TT1 and p32. […] The binding was measured by fluorescence polarization (FP) and observed as increased FP value. Binding constants (KD) were calculated by fitting the binding curves into Michaelis-Menten kinetics. […]
Fluorescence polarization (FP)-based assay was used for solution-based screening of compound libraries for p32 binding compounds. […] The protein was purified by IMAC using HIS-select resin (Sigma) with an imidizole gradient from 20-300 mM and eluted fractions were analyzed on analytical SDS-PAGE. […]

C[C@@H]1NC(=O)CNC(=O)[C@H](CCCNC(=N)N)NC(=O)[C@H](CCCCN)NC(=O)[C@@H](N)CSSC[C@@H](C(=O)O)NC(=O)[C@H]([C@@H](C)O)NC(=O)[C@H](CO)NC(=O)[C@H](CCCNC(=N)N)NC1=O [TT1, CKRGARSTC] (H-CKRGARSTC-OH; disulfide 1-9)
pKd: 5.64
